# Experiments:
# morningglory = assay: Test B pre/postemergence morningglory; assay type: in vivo, Ipomoea hederacea
# Procedure, shortened: (§1)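 Herbicidal effect was estimated by eye on a ten-point control scale after plants spent twelve to sixteen days in a greenhouse following soil or foliar treatment. Foliar sprays targeted plants at one to four leaves; all doses were formulated in a non-phytotoxic solvent with surfactant.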
# bedstraw = assay: Test B pre/postemergence bedstraw; assay type: in vivo, Galium aparine
# Procedure, shortened: as §1
# rape = assay: Test B pre/postemergence rape; assay type: in vivo, Brassica napus
# Procedure, shortened: as §1
# wild oat = assay: Test B pre/postemergence wild oat; assay type: in vivo, Avena fatua
# Procedure, shortened: as §1
# corn = assay: Test B pre/postemergence corn; assay type: in vivo, Zea mays
# Procedure, shortened: as §1
# purple nutsedge = assay: Test B pre/postemergence purple nutsedge; assay type: in vivo, Cyperus rotundus
# Procedure, shortened: as §1
# blackgrass = assay: Test B pre/postemergence blackgrass; assay type: in vivo, Alopecurus myosuroides
# Procedure, shortened: as §1
# sugar beet = assay: Test B pre/postemergence sugar beet; assay type: in vivo, Beta vulgaris
# Procedure, shortened: as §1
# crabgrass = assay: Test B pre/postemergence crabgrass; assay type: in vivo, Digitaria sanguinalis
# Procedure, shortened: as §1
# wheat = assay: Test B pre/postemergence wheat; assay type: in vivo, Triticum aestivum
# Procedure, shortened: as §1
# pigweed = assay: Test B pre/postemergence pigweed; assay type: in vivo, Amaranthus retroflexus
# Procedure, shortened: as §1
# giant foxtail = assay: Test B pre/postemergence giant foxtail; assay type: in vivo, Setaria faberii
# Procedure, shortened: as §1
# surinam grass = assay: Test B pre/postemergence surinam grass; assay type: in vivo, Brachiaria decumbens
# Procedure, shortened: as §1
# velvetleaf = assay: Test B pre/postemergence velvetleaf; assay type: in vivo, Abutilon theophrasti
# Procedure, shortened: as §1
# soybean = assay: Test B pre/postemergence soybean; assay type: in vivo, Glycine max
# Procedure, shortened: as §1
# cocklebur = assay: Test B pre/postemergence cocklebur; assay type: in vivo, Xanthium strumarium
# Procedure, shortened: as §1
# [1] = Postemergence, Rate 62 g/ha, scale 0 to 10, 0 is no effect, 10 is complete control
# [2] = Postemergence, Rate 125 g/ha, scale of 0 to 10 where 0 is no effect and 10 is complete control
# [3] = Preemergence, Rate 125 g/ha, scale of 0 to 10 where 0 is no effect and 10 is complete control
# [4] = Preemergence, Rate 250 g/ha, scale 0 (no effect) to 10 (complete control)
# [5] = Rate 62 g/ha, Preemergence, scale 0 to 10
# [6] = Rate 250 g/ha, Postemergence, scale 0 to 10, 0 is no effect, 10 is complete control
# [7] = Rate 500 g/ha, Postemergence, scale 0 to 10, 0 is no effect, 10 is complete control
# [8] = Rate 500 g/ha, Preemergence, scale 0 to 10 (0 no effect, 10 complete control)
smiles,measurement,setting,value
Cc1nc(C(C)n2c(=O)on(C(=O)N(c3ccccc3)C(C)C)c2=O)sc1C (stereo not shown) [Compound 756],"Plant response rating, Morningglory",morningglory; [1],4
same,Morningglory plant response rating,morningglory; [2],7
same,"Plant response rating, Morningglory",morningglory; [3],0
same,Morningglory plant response rating,morningglory; [4],0
same,Morningglory plant response rating,morningglory; [5],0
same,Morningglory plant response rating,morningglory; [6],10
same,Morningglory plant response rating,morningglory; [7],10
same,Morningglory plant response rating,morningglory; [8],0
same,"Plant response rating, Bedstraw",bedstraw; [1],0
same,Bedstraw plant response rating,bedstraw; [2],0
same,"Plant response rating, Bedstraw",bedstraw; [3],0
same,Bedstraw plant response rating,bedstraw; [4],0
same,Bedstraw plant response rating,bedstraw; [5],0
same,Bedstraw plant response rating,bedstraw; [6],3
same,Bedstraw plant response rating,bedstraw; [8],0
same,"Plant response rating, Rape",rape; [1],0
same,Rape plant response rating,rape; [2],0
same,"Plant response rating, Rape",rape; [3],0
same,Rape plant response rating,rape; [4],0
same,Rape plant response rating,rape; [5],0
same,Rape plant response rating,rape; [6],0
same,Rape plant response rating,rape; [7],3
same,Rape plant response rating,rape; [8],0
same,"Plant response rating, Wild oats",wild oat; [1],0
same,"Plant response rating, Wild oats",wild oat; [3],0
same,Wild oats plant response rating,wild oat; [4],0
same,Wild oats plant response rating,wild oat; [5],0
same,Wild oats plant response rating,wild oat; [6],0
same,Wild oats plant response rating,wild oat; [7],0
same,Wild oats plant response rating,wild oat; [8],0
same,"Plant response rating, Corn",corn; [1],0
same,Corn plant response rating,corn; [2],0
same,"Plant response rating, Corn",corn; [3],0
same,Corn plant response rating,corn; [4],0
same,Corn plant response rating,corn; [5],0
same,Corn plant response rating,corn; [6],0
same,Corn plant response rating,corn; [7],0
same,Corn plant response rating,corn; [8],0
same,"Plant response rating, Nutsedge",purple nutsedge; [1],0
same,Nutsedge plant response rating,purple nutsedge; [2],0
same,"Plant response rating, Nutsedge",purple nutsedge; [3],0
same,Nutsedge plant response rating,purple nutsedge; [4],0
same,Nutsedge plant response rating,purple nutsedge; [6],0
same,Nutsedge plant response rating,purple nutsedge; [7],0
same,Nutsedge plant response rating,purple nutsedge; [8],7
same,"Plant response rating, Blackgrass",blackgrass; [1],0
same,Blackgrass plant response rating,blackgrass; [2],0
same,"Plant response rating, Blackgrass",blackgrass; [3],2
same,Blackgrass plant response rating,blackgrass; [4],4
same,Blackgrass plant response rating,blackgrass; [5],0
same,Blackgrass plant response rating,blackgrass; [6],0
same,Blackgrass plant response rating,blackgrass; [7],3
same,Blackgrass plant response rating,blackgrass; [8],7
same,"Plant response rating, Sugarbeets",sugar beet; [1],0
same,"Plant response rating, Sugarbeets",sugar beet; [3],0
same,Sugarbeets plant response rating,sugar beet; [4],0
same,Sugarbeets plant response rating,sugar beet; [5],0
same,Sugarbeets plant response rating,sugar beet; [6],0
same,Sugarbeets plant response rating,sugar beet; [7],0
same,Sugarbeets plant response rating,sugar beet; [8],0
same,"Plant response rating, Crabgrass",crabgrass; [1],0
same,Crabgrass plant response rating,crabgrass; [2],0
same,"Plant response rating, Crabgrass",crabgrass; [3],9
same,Crabgrass plant response rating,crabgrass; [4],9
same,Crabgrass plant response rating,crabgrass; [5],4
same,Crabgrass plant response rating,crabgrass; [6],0
same,Crabgrass plant response rating,crabgrass; [7],3
same,Crabgrass plant response rating,crabgrass; [8],9
same,"Plant response rating, Wheat",wheat; [1],0
same,"Plant response rating, Wheat",wheat; [3],0
same,Wheat plant response rating,wheat; [4],0
same,Wheat plant response rating,wheat; [5],0
same,Wheat plant response rating,wheat; [6],0
same,Wheat plant response rating,wheat; [7],0
same,Wheat plant response rating,wheat; [8],0
same,"Plant response rating, Redroot pigweed",pigweed; [1],0
same,Redroot pigweed plant response rating,pigweed; [2],0
same,"Plant response rating, Redroot pigweed",pigweed; [3],0
same,Redroot pigweed plant response rating,pigweed; [4],0
same,Redroot pigweed plant response rating,pigweed; [5],0
same,Redroot pigweed plant response rating,pigweed; [6],0
same,Redroot pigweed plant response rating,pigweed; [7],3
same,Redroot pigweed plant response rating,pigweed; [8],0
same,"Plant response rating, Giant foxtail",giant foxtail; [1],0
same,Giant foxtail plant response rating,giant foxtail; [2],0
same,"Plant response rating, Giant foxtail",giant foxtail; [3],9
same,Giant foxtail plant response rating,giant foxtail; [4],9
same,Giant foxtail plant response rating,giant foxtail; [5],7
same,Giant foxtail plant response rating,giant foxtail; [6],0
same,Giant foxtail plant response rating,giant foxtail; [7],0
same,Giant foxtail plant response rating,giant foxtail; [8],9
same,"Plant response rating, B. signalgrass",surinam grass; [1],0
same,B. signalgrass plant response rating,surinam grass; [2],0
same,B. signalgrass plant response rating,"surinam grass; Preemergence, Rate 62 g/ha, scale of 0 to 10 where 0 is no effect and 10 is complete control",0
same,"Plant response rating, B. signalgrass",surinam grass; [3],0
same,B. signalgrass plant response rating,surinam grass; [4],0
same,B. signalgrass plant response rating,surinam grass; [6],0
same,B. signalgrass plant response rating,surinam grass; [7],2
same,B. signalgrass plant response rating,surinam grass; [8],3
same,"Plant response rating, Velvetleaf",velvetleaf; [1],0
same,"Plant response rating, Velvetleaf",velvetleaf; [3],0
same,Velvetleaf plant response rating,velvetleaf; [4],0
same,Velvetleaf plant response rating,velvetleaf; [5],0
same,Velvetleaf plant response rating,velvetleaf; [6],0
same,Velvetleaf plant response rating,velvetleaf; [7],0
same,Velvetleaf plant response rating,velvetleaf; [8],0
same,"Plant response rating, Soybean",soybean; [1],2
same,"Plant response rating, Soybean",soybean; [3],0
same,Soybean plant response rating,soybean; [4],0
same,Soybean plant response rating,soybean; [5],0
same,Soybean plant response rating,soybean; [6],2
same,Soybean plant response rating,soybean; [7],2
same,Soybean plant response rating,soybean; [8],0
same,"Plant response rating, Cocklebur",cocklebur; [1],0
same,Cocklebur plant response rating,cocklebur; [2],0
same,"Plant response rating, Cocklebur",cocklebur; [3],0
same,Cocklebur plant response rating,cocklebur; [4],0
same,Cocklebur plant response rating,cocklebur; [5],0
same,Cocklebur plant response rating,cocklebur; [6],0
same,Cocklebur plant response rating,cocklebur; [7],0
same,Cocklebur plant response rating,cocklebur; [8],0

# Reference: patent US6737383B1, “Herbicidal oxadiazolidines” (priority 1999, dated 2004)
